{"source": "patent US20120116069A1", "about": "“GLUCOSE METABOLISM-IMPROVING AGENT AND GLUCOSE METABOLISM-IMPROVING COMPOSITION” (LION CORPORATION, priority 2009, published 2012)", "tested_on": "cells derived from rat skeletal muscle (L6 cells)", "assay": "Intake of RI-labeled 2-deoxyglucose into differentiated L6 cells", "format": "cell-based", "conditions": "n=4", "protocol": "Cells derived from rat skeletal muscle (L6 cells, product of Dainippon Pharmaceutical Co., Ltd.) were suspended in 15 mL of DMEM (Dulbecco's modified Eagle medium, product of SIGMA Co.) containing 10% by mass FBS (fetal bovine serum, product of GIBCO Co.) and 1% by mass AB (anti-biotic solution, product of SIGMA Co.). The resultant suspension was dispensed into 75-cm^2 culture flasks and then statically cultured at 37° C. under 5% CO2. After having reached subconfluency (80%), each culture was placed in a 24-well plate (product of SUMITOMO BAKELITE CO., LTD.) at 50,000 cells/well. After having reached confluency, the cells were cultured for three days. Then, the medium was exchanged with MEM (minimal essential medium, product of NACALAI TESQUE, INC.) containing 2% by mass FBS and 1% by mass AB to thereby induce differentiation of the L6 cells. Eight days after the induction of differentiation, a solution of panaxatriol (PT) (product of LKT Laboratories, Inc.) in ethanol was added to the resultant medium so that the concentration of panaxatriol (PT) was 1 ppm or 10 ppm. The PT-free well was used as a control for each of these wells. Then, 30 hours after, the medium of each well was exchanged with MEM containing 2% by mass BSA (bovine serum albumin, product of SIGMA Co.) and panaxatriol (PT) at a concentration of 1 ppm or 10 ppm, to thereby terminate sensitization. Furthermore, 18 hours after, the MEM containing 2% by mass BSA was removed, and a KRH buffer (50 mM HEPES (product of SIGMA Co.), pH 7.4, 137 mM sodium chloride (product of Wako Pure Chemical Industries, Ltd.), 4.8 mM potassium chloride (product of Wako Pure Chemical Industries, Ltd.), 1.85 mM calcium chloride (product of Wako Pure Chemical Industries, Ltd.) and 1.3 mM magnesium sulfate (product of Wako Pure Chemical Industries, Ltd.)) was added to the wells at 30 μL/well. Thereafter, 6 μL of RI-labeled 2-deoxyglucose (2-DG, product of American Radiolabeled Chemicals Co.) (final concentration: 6.5 mM (0.5·Ci)) was added to the wells to perform reaction. Five minutes after the initiation of reaction, the cells were washed four times with an ice-cooled KRH buffer to remove 2-DG that had not been taken into the L6 cells. After removal of the KRH buffer, the cells were lysed with 250 μL of 0.05N sodium hydroxide (product of Wako Pure Chemical Industries, Ltd.) and recovered in a vial. In addition, the wells were washed twice with 200 μL of the KRH buffer and recovered in the vial similarly. Then, 3 mL of liquid scintillation cocktail PICOFLOUR (product of PerkinElmer Co., Ltd.) was added to the vial containing the cells recovered, followed by measuring for radioactivity with a liquid scintillation counter (LSC-5100, product of Aloka Co.). […]", "note": "Marks after values point to notes of the source that are not given here.", "data": [{"smiles": "CC1(C)CCC[C@](C)([C@H]2CC[C@]3(C)[C@@H]2[C@H](O)C[C@@H]2[C@@]4(C)CC[C@H](O)C(C)(C)[C@@H]4CC[C@]23C)O1", "note": "[PD, panaxadiol]", "values": [{"measurement": "Relative activity (radioactivity of 2-DG taken in, compound-free well = 100)", "setting": "1 ppm", "result": "130*"}, {"measurement": "Relative activity (radioactivity of 2-DG taken in, compound-free well = 100)", "setting": "10 ppm", "result": "140**"}]}, {"smiles": "CC1(C)CCC[C@](C)([C@H]2CC[C@]3(C)[C@@H]2[C@H](O)C[C@@H]2[C@@]4(C)CC[C@H](O)C(C)(C)[C@@H]4[C@@H](O)C[C@]23C)O1", "note": "[PT, panaxatriol]", "values": [{"measurement": "Relative activity (radioactivity of 2-DG taken in, compound-free well = 100)", "setting": "1 ppm", "result": "132*"}, {"measurement": "Relative activity (radioactivity of 2-DG taken in, compound-free well = 100)", "setting": "10 ppm", "result": "145**"}]}]}
